In patent US9840498B2, “Substituted quinazolin-4-one derivatives” (NOVARTIS AG, priority 2013, dated 2017):

target: human phosphoinositide-3 kinase (PI3K) alpha (Homo sapiens (Human), UniProt P42336); experiment: PI3K-mediated Akt 1/2 (S473) phosphorylation in Rat-1 cells overexpressing PI3K alpha; assay type: cell-based, rat cells expressing human PI3K alpha; conditions: cellular assay, p-AKT(Ser473), read-out: Cell PI3K alpha IC50
Protocol: 2.1 Phosphoinositide-3 kinase (PI3K)-Mediated Akt 1/2 (S473) Phosphorylation in Rat-1 Cells
Rat-1 cells stably overexpressing a myristoylated form of the catalytic subunit of human phosphoinositide-3 kinase (PI3K) alpha, beta or delta were plated in 384-well plates at a density of 7500 (PI3K alpha), 6200 (PI3K beta), or 4000 (PI3K delta) cells in 30 ul complete growth medium (Dulbecco's modified Eagle's medium (DMEM high glucose) supplemented with 10% (v/v) fetal bovine serum, 1% (v/v) MEM non essential amino acids, 10 mM HEPES, 2 mM L-glutamine, 10 μg/mL puromycin and 1% (v/v) Penicillin/Streptomycin) and were incubated at […]/5% CO2/95% humidity for 24 h. Compounds were diluted in 384-well compound plates (compound master plates), to obtain 8-point serial dilutions for 40 test compounds in 90% DMSO, as well as 4 reference compounds plus 16 high controls and 16 low (inhibited) controls. Predilution plates were prepared by dispensing pipetting 250 nl of compound solutions into 384-well polypropylen plates (daugther plates), using a Hummingwell nanoliter dispenser. Compounds were prediluted by the addition of 49.75 ul complete growth medium. 10 ul of prediluted compound solution were transferred to the cell plate using a 384-well pipettor, resulting in a final DMSO concentration of 0.11%. Cells were incubated for 1 h at […]/5% CO2/95% humidity. The supernatant was removed, the cells were lysed in 20 ul of lysis buffer for AlphaScreen® SureFire® detection.
For detection of p-AKT(Ser473), the SureFire® p-Akt 1/2 (Ser473) Assay Kit (PerkinElmer, U.S.A.) was used. 5 ul of cell lysate was transferred to 384-well low volume Proxiplates for detection using a 384-well pipettor. Addition of AlphaScreen® SureFire® reagents was done according to the manufacturer's protocol. First, 5 ul of reaction buffer plus activation buffer mix containing AlphaScreen® acceptor beads was added, the plate was sealed, and incubated on a plate shaker for 2 hours at room temperature. Second, 2 ul of dilution buffer containing AlphaScreen® donor beads was added, and the plate was incubated on plate shaker as above for a further 2 hours. The plate was read on an AlphaScreen® compatible plate reader, using standard AlphaScreen® settings. Alternatively, p-AKT(Ser473) was detected with the CisBio HTRF Assay Kit: As positive control, 0.9 mM of 1-(3-(trifluoromethyl)-4-(piperazin-1-yl)phenyl)-8-(6-methoxypyridin-3-yl)-3-methyl-1H-imidazo[4,5-c]quinolin-2(3H)-one maleic acid salt in 90% (v/v) DMSO was added to the compound master plate. For compound testing, the cells were seeded at a density of 4000 (Rat-1_PI3Kdelta), 8000 (Rat-1_PI3Kalpha), or 6500 (Rat-1_PI3Kbeta) cells in 30 ul complete growth medium into 384-well plates, with a plastic surface promoting the adhesion of cells and their growth (assay plates) and were grown at 37° C./5% CO2/90% humidity for 24 h. Some 10 ul of the compound predilutions from the daughter plate were then transferred to the cells. After treatment with compound for 1 h, medium was removed and cells were lysed by the addition of 20 ul lysis buffer supplemented with blocking buffer. Detection of p-AKT(Ser473) was performed with the HTRF pAKT (Ser473) assay kit according to the manufacturer's instructions using 16 ul of cell lysate in a total detection volume of 20 ul.

Sequence of human phosphoinositide-3 kinase (PI3K) alpha (P42336 whole entry): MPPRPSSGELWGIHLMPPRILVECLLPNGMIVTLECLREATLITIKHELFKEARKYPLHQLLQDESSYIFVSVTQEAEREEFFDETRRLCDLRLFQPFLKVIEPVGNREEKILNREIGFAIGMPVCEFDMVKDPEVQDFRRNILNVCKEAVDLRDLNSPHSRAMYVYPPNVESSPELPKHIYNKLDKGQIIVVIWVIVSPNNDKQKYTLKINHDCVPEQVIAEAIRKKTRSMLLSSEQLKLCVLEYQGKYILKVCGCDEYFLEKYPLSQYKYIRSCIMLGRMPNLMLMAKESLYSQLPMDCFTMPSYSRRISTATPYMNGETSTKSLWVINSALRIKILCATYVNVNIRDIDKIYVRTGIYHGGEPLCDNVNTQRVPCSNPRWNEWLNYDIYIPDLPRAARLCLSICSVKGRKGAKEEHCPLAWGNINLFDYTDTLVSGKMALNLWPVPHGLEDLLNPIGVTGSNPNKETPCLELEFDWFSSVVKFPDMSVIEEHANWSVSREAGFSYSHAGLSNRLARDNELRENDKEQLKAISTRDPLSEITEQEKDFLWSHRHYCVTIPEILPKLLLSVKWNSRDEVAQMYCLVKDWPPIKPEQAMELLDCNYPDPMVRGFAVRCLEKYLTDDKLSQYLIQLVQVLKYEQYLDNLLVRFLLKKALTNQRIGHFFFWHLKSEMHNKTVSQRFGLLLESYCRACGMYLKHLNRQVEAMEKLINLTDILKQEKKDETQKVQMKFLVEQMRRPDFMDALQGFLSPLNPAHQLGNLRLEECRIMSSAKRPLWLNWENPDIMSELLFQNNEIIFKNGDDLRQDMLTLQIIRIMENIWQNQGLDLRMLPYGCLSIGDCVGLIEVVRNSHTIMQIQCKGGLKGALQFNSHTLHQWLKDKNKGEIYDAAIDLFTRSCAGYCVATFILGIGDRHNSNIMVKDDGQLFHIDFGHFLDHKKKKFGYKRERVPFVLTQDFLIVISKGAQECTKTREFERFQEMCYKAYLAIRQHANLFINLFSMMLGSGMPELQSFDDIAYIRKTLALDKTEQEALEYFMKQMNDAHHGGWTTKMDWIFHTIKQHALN
Sequence of human phosphoinositide-3 kinase (PI3K) alpha (Q63787 whole entry partner): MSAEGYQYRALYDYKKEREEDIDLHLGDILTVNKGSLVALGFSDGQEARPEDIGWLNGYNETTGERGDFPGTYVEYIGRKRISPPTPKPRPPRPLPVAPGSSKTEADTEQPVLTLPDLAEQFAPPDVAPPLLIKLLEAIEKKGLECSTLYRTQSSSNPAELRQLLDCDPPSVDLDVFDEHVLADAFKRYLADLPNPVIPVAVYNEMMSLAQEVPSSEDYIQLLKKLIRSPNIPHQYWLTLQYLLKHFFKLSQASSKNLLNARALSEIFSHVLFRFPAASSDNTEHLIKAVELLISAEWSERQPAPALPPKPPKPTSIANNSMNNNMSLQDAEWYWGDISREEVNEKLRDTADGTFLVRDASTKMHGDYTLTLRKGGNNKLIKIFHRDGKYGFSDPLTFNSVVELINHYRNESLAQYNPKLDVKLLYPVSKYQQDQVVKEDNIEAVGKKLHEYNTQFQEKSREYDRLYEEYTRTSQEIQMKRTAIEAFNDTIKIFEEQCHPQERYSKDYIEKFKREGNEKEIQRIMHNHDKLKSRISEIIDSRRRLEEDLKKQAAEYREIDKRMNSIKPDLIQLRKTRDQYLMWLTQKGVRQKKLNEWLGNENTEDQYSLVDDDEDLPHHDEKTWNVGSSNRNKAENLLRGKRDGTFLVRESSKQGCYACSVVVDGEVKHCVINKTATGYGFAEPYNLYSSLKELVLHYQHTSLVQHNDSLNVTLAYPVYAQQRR

Row | SMILES | IC50
1 | Cc1nc(N)nc(N2C[C@@H](O)C[C@H]2c2nc3ccc(F)c(-c4cnn(C)c4)c3c(=O)n2-c2ccccc2)c1C#N [Example 1, 2-Amino-4-((2S,4S)-2-(6-fluoro-5-(1-methyl-1H-pyrazol-4-yl)-4-oxo-3-phenyl-3,4-dihydroquinazolin-2-yl)-4-hydroxypyrrolidin-1-yl)-6-methylpyrimidine-5-carbonitrile] | 2.2 µM
2 | Cn1cc(-c2cccc3nc([C@@H]4CCCN4c4ncnc(N)c4C#N)n(-c4ccccc4)c(=O)c23)cn1 [Example 2, (S)-4-Amino-6-(2-(5-(1-methyl-1H-pyrazol-4-yl)-4-oxo-3-phenyl-3,4-dihydroquinazolin-2-yl)pyrrolidin-1-yl)pyrimidine-5-carbonitrile] | 1.3 µM
3 | COc1ncc(-c2cccc3nc([C@@H]4CCCN4c4ncnc(N)c4C#N)n(-c4ccccc4)c(=O)c23)cn1 [Example 3, (S)-4-Amino-6-(2-(5-(2-methoxypyrimidin-5-yl)-4-oxo-3-phenyl-3,4-dihydroquinazolin-2-yl)pyrrolidin-1-yl)pyrimidine-5-carbonitrile] | 6.8 µM
4 | COc1ncc(-c2cccc3nc([C@@H]4CCCN4c4nc(N)nc(C)c4C#N)n(-c4ccccc4)c(=O)c23)cn1 [Example 4, (S)-2-Amino-4-(2-(5-(2-methoxypyrimidin-5-yl)-4-oxo-3-phenyl-3,4-dihydroquinazolin-2-yl)pyrrolidin-1-yl)-6-methylpyrimidine-5-carbonitrile] | 2.8 µM
5 | Cn1cc(-c2c(F)ccc3nc([C@@H]4CCCN4c4ncnc(N)c4C#N)n(-c4ccccc4)c(=O)c23)cn1 [Example 5, (S)-4-Amino-6-(2-(6-fluoro-5-(1-methyl-1H-pyrazol-4-yl)-4-oxo-3-phenyl-3,4-dihydroquinazolin-2-yl)pyrrolidin-1-yl)pyrimidine-5-carbonitrile] | 3 µM
6 | Cc1nc(N)nc(N2CCC[C@H]2c2nc3ccc(F)c(-c4cnn(C)c4)c3c(=O)n2-c2ccccc2)c1C#N [Example 6, (S)-2-Amino-4-(2-(6-fluoro-5-(1-methyl-1H-pyrazol-4-yl)-4-oxo-3-phenyl-3,4-dihydroquinazolin-2-yl)pyrrolidin-1-yl)-6-methylpyrimidine-5-carbonitrile] | 1.4 µM
7 | COc1ncc(-c2c(F)ccc3nc([C@@H]4C[C@H](O)CN4c4nc(N)nc(C)c4C#N)n(-c4ccccc4)c(=O)c23)cn1 [Example 7, 2-Amino-4-((2S,4S)-2-(6-fluoro-5-(2-methoxypyrimidin-5-yl)-4-oxo-3-phenyl-3,4-dihydroquinazolin-2-yl)-4-hydroxypyrrolidin-1-yl)-6-methylpyrimidine-5-carbonitrile] | 4.7 µM
8 | Cn1cc(-c2c(F)ccc3nc([C@@H]4C[C@H](O)CN4c4ncnc(N)c4C#N)n(-c4ccccc4)c(=O)c23)cn1 [Example 8, 4-Amino-6-((2S,4S)-2-(6-fluoro-5-(1-methyl-1H-pyrazol-4-yl)-4-oxo-3-phenyl-3,4-dihydroquinazolin-2-yl)-4-hydroxypyrrolidin-1-yl) pyrimidine-5-carbonitrile] | 3.2 µM
9 | COc1ncc(-c2c(F)ccc3nc([C@@H]4C[C@H](O)CN4c4nc(N)nc(C)c4C#N)n(-c4ccccc4)c(=O)c23)s1 [Example 9, 2-Amino-4-((2S,4S)-2-(6-fluoro-5-(2-methoxythiazol-5-yl)-4-oxo-3-phenyl-3,4-dihydroquinazolin-2-yl)-4-hydroxypyrrolidin-1-yl)-6-methylpyrimidine-5-carbonitrile] | 0.67 µM
10 | CO[C@H]1C[C@@H](c2nc3cccc(-c4cnn(C)c4)c3c(=O)n2-c2ccccc2)N(c2nc(N)nc(C)c2C#N)C1 [Example 10, 2-Amino-4-((2S,4S)-4-methoxy-2-(5-(1-methyl-1H-pyrazol-4-yl)-4-oxo-3-phenyl-3,4-dihydroquinazolin-2-yl)pyrrolidin-1-yl)-6-methylpyrimidine-5-carbonitrile] | 3.9 µM
11 | CO[C@H]1C[C@@H](c2nc3cccc(-c4cnn(C)c4)c3c(=O)n2-c2ccccc2)N(c2nc(N)nc3[nH]cnc23)C1 [Example 11, 2-((2S,4S)-1-(2-Amino-9H-purin-6-yl)-4-methoxypyrrolidin-2-yl)-5-(1-methyl-1H-pyrazol-4-yl)-3-phenylquinazolin-4(3H)-one] | > 10 µM
12 | COc1ncc(-c2cccc3nc([C@@H]4C[C@H](OC)CN4c4nc(N)nc(C)c4C#N)n(-c4ccccc4)c(=O)c23)cn1 [Example 12, 2-Amino-4-((2S,4S)-4-methoxy-2-(5-(2-methoxypyrimidin-5-yl)-4-oxo-3-phenyl-3,4-dihydroquinazolin-2-yl)pyrrolidin-1-yl)-6-methylpyrimidine-5-carbonitrile] | 5.9 µM
13 | Cc1nc(N)nc(N2CCC[C@H]2c2nc3cccc(-c4cnn(C)c4)c3c(=O)n2-c2ccccc2)c1C#N [Example 13, (S)-2-Amino-4-methyl-6-(2-(5-(1-methyl-1H-pyrazol-4-yl)-4-oxo-3-phenyl-3,4-dihydroquinazolin-2-yl)pyrrolidin-1-yl)pyrimidine-5-carbonitrile] | 1.1 µM
14 | Cc1ccccc1-n1c([C@@H]2CCCN2c2ncnc(N)c2C#N)nc2cccc(-c3cnn(C)c3)c2c1=O [Example 14, (S)-4-Amino-6-(2-(5-(1-methyl-1H-pyrazol-4-yl)-4-oxo-3-(otolyl)-3,4-dihydroquinazolin-2-yl)pyrrolidin-1-yl)pyrimidine-5-carbonitrile] | 3.3 µM
15 | Cn1cnc(-c2cccc3nc([C@@H]4CCCN4c4ncnc(N)c4C#N)n(-c4ccccc4)c(=O)c23)c1 [Example 15, (S)-4-Amino-6-(2-(5-(1-methyl-1H-imidazol-4-yl)-4-oxo-3-phenyl-3,4-dihydroquinazolin-2-yl)pyrrolidin-1-yl)pyrimidine-5-carbonitrile] | > 10 µM
16 | Cc1nc(N)nc(N2C[C@@H](O)C[C@H]2c2nc3cccc(-c4cnn(C)c4)c3c(=O)n2-c2ccccc2)c1C#N [Example 16, 2-Amino-4-((2S,4S)-4-hydroxy-2-(5-(1-methyl-1H-pyrazol-4-yl)-4-oxo-3-phenyl-3,4-dihydroquinazolin-2-yl)pyrrolidin-1-yl)-6-methylpyrimidine-5-carbonitrile] | 2.7 µM
17 | Cc1nc(N)nc(N2CCC[C@H]2c2nc3cccc(-c4cncnc4)c3c(=O)n2-c2ccccc2)c1C#N [Example 17, (S)-2-Amino-4-methyl-6-(2-(4-oxo-3-phenyl-5-(pyrimidin-5-yl)-3,4-dihydroquinazolin-2-yl)pyrrolidin-1-yl)pyrimidine-5-carbonitrile] | 5.8 µM
18 | COc1cncc(-c2cccc3nc([C@@H]4CCCN4c4nc(N)nc(C)c4C#N)n(-c4ccccc4)c(=O)c23)c1 [Example 18, (S)-2-Amino-4-(2-(5-(5-methoxypyridin-3-yl)-4-oxo-3-phenyl-3,4-dihydroquinazolin-2-yl)pyrrolidin-1-yl)-6-methylpyrimidine-5-carbonitrile] | 0.42 µM
19 | Cc1ncc(-c2cccc3nc([C@@H]4CCCN4c4nc(N)nc(C)c4C#N)n(-c4ccccc4)c(=O)c23)cn1 [Example 19, (S)-2-Amino-4-methyl-6-(2-(5-(2-methylpyrimidin-5-yl)-4-oxo-3-phenyl-3,4-dihydroquinazolin-2-yl)pyrrolidin-1-yl)pyrimidine-5-carbonitrile] | 5.4 µM
20 | Cc1nc(N)nc(N2CCC[C@H]2c2nc3cccc(-c4cccnc4)c3c(=O)n2-c2ccccc2)c1C#N [Example 20, (S)-2-Amino-4-methyl-6-(2-(4-oxo-3-phenyl-5-(pyridin-3-yl)-3,4-dihydroquinazolin-2-yl)pyrrolidin-1-yl)pyrimidine-5-carbonitrile] | 1.5 µM
21 | COc1ccc(-c2cccc3nc([C@@H]4CCCN4c4nc(N)nc(C)c4C#N)n(-c4ccccc4)c(=O)c23)cn1 [Example 21, (S)-2-Amino-4-(2-(5-(6-methoxypyridin-3-yl)-4-oxo-3-phenyl-3,4-dihydroquinazolin-2-yl)pyrrolidin-1-yl)-6-methylpyrimidine-5-carbonitrile] | 2.5 µM
